We go through 9 molecules from patent US20220378780A1, “PHARMACEUTICAL COMPOSITIONS COMPRISING POH DERIVATIVES” (NeOnc Technologies, Inc., priority 2019, published 2022).

In series [1] the test system is subcutaneous U-87 gliomas. Nature of the series: Nude mouse subcutaneous glioma model, tumor growth inhibition. The format is in vivo, nude mice. As to conditions: local application via Q-tip, 1 cc/application/day, 8 weeks; growth over 60 days. The method, then: Inhibition of tumor growth by butyryl-POH was studied in a nude mouse subcutaneous glioma model. Mice were injected with U-87 glioma cells (500,000 cells/injection) and allowed to form a palpable nodule over two weeks. Once palpable nodule was formed, the mice were treated with local application of various compounds as indicated in FIGS. 9A and 9B via a Q-tip (1 cc/application/day) over a period of 8 weeks.

For series [2], the system named is U87 human glioma cells. Put plainly: MTT assay, rolipram vs POH-Rolipram, U87. Conditions: U-87 cells, 48 hours. Type of series: cell-based. The method, then:
(§1) To compare the cytotoxicity of Rolipram POH Carbamate (POH-Rolipram) (e.g., synthesized by the method in Example 5) with rolipram, a […] inducing differentiation and apoptosis in glioma cells, A172, U87, U251 and LN229 human glioma cells were treated with either POH-Rolipram or rolipram for 48 hours. […] In the presence of POH-rolipram, IC50 is achieved at concentrations as low as 50 uM. […] IC50 is not met at 1000 uM. […] POH-rolipram achieves IC50 at 50 uM, with almost 100% cytoxicity at 100 uM. […] On the other hand, IC50 for POH-rolipram is achieved at 100 uM, with almost 100% cytotoxicity at […].
(Formazan colour is commonly taken as a measure of viable cells.)

Series [3] has as its system LN229 human glioma cells. Put plainly: MTT assay, rolipram vs POH-Rolipram, LN229. Type of series: cell-based. As to conditions: for IC50: MTT. The method, then:
as §1

The test system of series [4] is U251 human glioma cells. Nature of the series: MTT assay, rolipram vs POH-Rolipram, U251. Type of series: cell-based. Conditions: for IC50: 48 hours, MTT. The method, then: as §1
Series [5] relates to A172 human glioma cells. Put plainly: MTT assay, rolipram vs POH-Rolipram, A172. Type of series: cell-based. Conditions: A-172 cells, 48 hours. The method, then: as §1
In series [6] the test system is U87, A172 and U251 human glioma cells. Nature of the series: MTT cytotoxicity assay on human malignant glioma cells. The format is cell-based. An excerpt: In vitro efficacy of the present composition can be determined using methods well known in the art. For example, the cytotoxicity of the present monoterpene (or sesquiterpene) and/or the therapeutic agents may be studied by MTT [3-(4,5-dimethylthiazol-2-yl)-2,5-diphenyl tetrazolium bromide] cytotoxicity assay. MTT assay is based on the principle of uptake of MTT, a tetrazolium salt, by metabolically active cells where it is metabolized into a blue colored formazon product, which can be read spectrometrically. J. of Immunological Methods 65: 55 63, 1983. The cytotoxicity of the present monoterpene (or sesquiterpene) derivative and/or the therapeutic agents may be studied by colony formation assay. Functional assays for inhibition of VEGF secretion and IL-8 secretion may be performed via ELISA. Cell cycle block by the present monoterpene (or sesquiterpene) derivative and/or the therapeutic agents may be studied by standard propidium iodide (PI) staining and flow cytometry. Invasion inhibition may be studied by Boyden chambers. In this assay a layer of reconstituted basement membrane, Matrigel, is coated onto chemotaxis filters and acts as a barrier to the migration of cells in the Boyden chambers. Only cells with invasive capacity can cross the Matrigel barrier. Other assays include, but are not limited to cell viability assays, apoptosis assays, and morphological assays.
Then U87, A172 and U251 cells were treated with dimethyl celecoxib bisPOH carbamate (POH-DMC) (e.g., synthesized by the method in Example 1), and the MTT cytotoxicity assays performed (FIG. 2).
Then TMZ-resistant glioma cell lines U87, A172 and U251 cells were treated with temozolomide POH carbamate (POH-TMZ) (e.g., synthesized by the method in Example 3).

In series [7] the test system is c-myc, cyclin D1, activated caspase-3 and cleaved PARP-1 in MyLa cells. Nature of the series: Western blot of marker proteins with anti-oxidants or H2O2. Type of series: cell-based, human. Conditions: for effect of anti-oxidant on NEO212-induced marker changes: 200 and 500 μM AA or 100 and 300 μM b-ME before 80 μM NEO212, 48 hours. From the text: 2. Material and methods 2.1. […] 2.2. […] 2.3. […] 2.4.

Series [8] has as its system USC-02 glioma cancer stem cells. Nature of the series: MTT cytotoxicity assay, USC-02. The format is cell-based. As to conditions: USC-02; TMZ 0-400 uM, POH 0-2 mM. From the text:
(§2) Cancer Lett. 2011 Mar. 28; 302(2):100-8.

In series [9] the test system is HuT 78 cells. Nature of the series: MTT assay on HuT 78 cells (Example 14). Conditions: HuT 78, 72 hours. As for the experimental part:
HuT 78 cells are cutaneous T lymphocytes derived from a patient with Sézary syndrome.
HuT 78 cells were treated in vitro with (i) temozolomide (50, 100, 250 μM), (ii) POH-TMZ conjugate (“NEO212”, 25, 50, 100 μM), (iii) NEO412 which is the triple conjugate of temozolomide (TMZ), perillyl alcohol (POH), and linoleic acid (25, 50, 100, 250 μM), or (iv) vehicle alone. Seventy-two hours after the addition of drugs or vehicle, cell viability was determined by standard MTT (methylthiazoletetrazolium) assay.

The test system of series [10] is HUT102 cells. Nature of the series: MTT cell viability assay, HUT102 (Example 15). The format is cell-based, human. Conditions: HUT102, 72 hours. From the text:
(§3) 2. Material and methods 2.1. […] 2.2. […] 2.3. […] 2.4. […] 2.5.

Series [11] concerns HUT78 cells. Nature of the series: FACS analysis of cell death with 7-AAD. Type of series: cell-based, human. Conditions: HUT78, highest concentration 300, 72 hours.
From the text: as §3
(A flow cytometer gives signals particle by particle.)

The test system of series [12] is HUT78 cells. Put plainly: MTT cell viability assay, HUT78 (Example 15).
Method: Pharmacological agents—NEO212 was dissolved in DMSO at 100 mM. TMZ was purchased from Sigma Aldrich (St. Louis, Mo.) and dissolved in DMSO (Santa Cruz Biotechnology, Dallas, Tex.) to a concentration of 50 mM. POH was purchased from Sigma-Aldrich and diluted in DMSO to 100 mM. […] Stock solutions of all drugs were stored at −20° C. Staurosporine (STSP) was purchased from Selleck Chemicals (Houston, Tex.), stored at 4° C. protected from light, and dissolved in DMSO before use. Ascorbic acid (AA) and beta-mercaptoethanol (b-ME) (Sigma Aldrich) were prepared fresh before use. Crystalline AA was dissolved in phosphate-buffered saline (PBS) to 25 mM; b-ME was diluted in medium to 25 mM. […] Cell lines—Three different human CTLC cell lines were used. […] Both media also contained 100 U/mL penicillin and 0.1 mg/mL streptomycin. Penicillin, streptomycin, and RPMI (prepared with raw materials from Cellgro/MediaTech, Manassas, Va.) were provided by the Cell Culture Core lab of the USC/Norris Comprehensive Cancer Center. […] Cells were kept in a humidified incubator at 37° C. and a 5% CO2 atmosphere. FBS was obtained from Omega Scientific (Tarzana, Calif.) and from X&Y Cell Culture (Kansas City, Mo.). […] MTT assay—Methylthiazoletetrazolium (MTT) assays were performed as follows. Cells were seeded into 96-well plates in a volume of 50 μL per well at 3.0-5.0×10^5 cells/mL. An additional 50 μL of medium containing various concentrations of drug (or vehicle) was added and the cells were incubated for different lengths of time. This was followed by the addition of 10 μL thiazolyl-blue tetrazolium (i.e., MTT; Sigma Aldrich) from a stock solution of 5 mg/mL in phosphate-buffered saline (PBS). Cells were returned to the incubator for 4 hours. Thereafter, the reaction was stopped and the cells were lysed by the addition of 100 μL solubilization solution (10% sodium dodecyl sulfate in 0.01 M hydrochloric acid). The 96-well plate was left in the cell culture incubator over night for complete solubilization of the MTT crystals, and the optical density (OD) of each well was determined the next day in an ELISA plate reader at 560 nm. The background value (=OD of control wells containing medium without cells+MTT+solubilization solution) was subtracted from all measured values. In individual experiments, each treatment condition was set up in quadruplicate, and each experiment was repeated several times independently. […] Cell proliferation analysis—Cell proliferation was assessed by counting cells over time. Independent cell cultures were exposed to different concentrations of NEO212. At different times, aliquots of cells were removed, mixed with Trypan blue, and counted in a hemocytometer. Blue cells were considered dead, whereas unstained cells were counted as live cells. […] Fluorescence-activated cell sorting (FACS) analysis—Cells were seeded in 6-well tissue culture plates at 2×10^5 cells/mL, followed by drug treatment. After 72 hours, cells were collected, washed twice with PBS, transferred to a microcentrifuge tube, and suspended in 200 μL of 1× binding buffer solution, which was made fresh from 10x binding buffer (0.2 μm sterile-filtered 0.1 M HEPES, pH 7.4; 1.4 M NaCl; 25 mM CaCl2)). Then 1 μL of a 1 mg/mL 7-amino-actinomycin D (7-AAD) solution (Thermo Fisher Scientific, Waltham, Mass.) was added. After 20 minutes of incubation on ice, cell fluorescence was analyzed on a FACSAria Flow Cytometer (Becton Dickinson Biosciences Ltd., Franklin Lakes, N.J.).
In series [13] the test system is USC-04 glioma cancer stem cells. Put plainly: MTT cytotoxicity assay, USC-04. The format is cell-based. Conditions: USC-04; TMZ 0-400 uM, POH 0-2 mM.
From the text: as §2

For series [14] the following is noted: cancer patients; cited from earlier work.
Series [15] deals with TMZ resistant (U251TR) U251 cells. Put plainly: Colony forming assay, TMZ resistant U251TR. Type of series: cell-based, human. As for the experimental part:
(§4) Colony forming assays were carried out after cells were treated with TMZ alone, POH alone, and the TMZ-POH conjugate. […] Cancer Lett. 2011 Mar. 28; 302(2):100-8.

In series [16] the test system is MyLa cells. Nature of the series: MTT cell viability assay, MyLa (Example 15). Type of series: cell-based, human. Conditions: Homo sapiens, 72 hours.
From the text: as §3

Series [17] relates to TMZ sensitive (U251) cells. Nature of the series: Colony forming assay, TMZ sensitive U251. The format is cell-based, human. As for the experimental part: as §4
The subject of series [18] is glioblastoma, breast cancer, or melanoma cell lines. Conditions: various in vitro cytotoxicity assays; cited from earlier work.

Some results are limits rather than exact numbers.

`C=C(C)C1CC=C(COC(=O)CCC)CC1` (stereo not shown) [Butyryl-POH]: the “inhibition of tumor growth” value in series [1] was “greatest inhibition of tumor growth”.

For the molecule `COc1ccc(C2CNC(=O)C2)cc1OC1CCCC1` (stereo not shown) [rolipram, reference compound], the IC50 in series [2] (Homo sapiens, U-87 MG) was above 1000 µM; in series [3] (Homo sapiens, LN-229, 48 hours), above 100 µM; in series [4] (Homo sapiens, U-251, U251 cells) it was 170 µM; in series [5] (Homo sapiens), around 1000 µM. The plateau cytotoxicity in series [4] (human, 48 h) is 60%.

As to `C=C(C)C1CC=C(COC(=O)N(C(=O)OCC2=CCC(C(=C)C)CC2)S(=O)(=O)c2ccc(-n3nc(C(F)(F)F)cc3-c3cc(C)ccc3C)cc2)CC1` (stereo not shown) [POH-DMC], the “cytotoxicity in MTT assay” value in series [6] is listed as “much better cytotoxicity than DMC alone”.

Take `OO` [H2O2, hydrogen peroxide]: in series [7] (200 μM H2O2, 48 hours), the “effect on proliferation and apoptosis markers” value was “clear down-regulation of c-myc and cyclin D1 proteins, along with strong activation of caspase-3 and cleavage of PARP-1”.

For the molecule `O=C1O[C@H]([C@@H](O)CO)C(O)=C1O` [AA, ascorbic acid], the “effect of anti-oxidant on NEO212-induced marker changes” value in series [7] is “prevented the anticancer impact of NEO212”.

As for `C=C(C)C1CC=C(COC(=O)N2CC(c3ccc(OC)c(OC4CCCC4)c3)CC2=O)CC1` (stereo not shown) [POH-rolipram, 4-(3-cyclopentyloxy-4-methoxyphenyl)-2-oxo-pyrrolidine-1-carboxylic acid 4-isopropenyl cyclohex-1-enylmethyl ester], the 50% inhibitory concentration (IC50) in series [2] came to 180 µM; in series [3] (48 hours), 100 µM; in [4] (U251 cells) it was 50 µM; in series [5], 50 µM. In addition, the cytotoxicity is listed as around 100% in series [3] (at 10 uM) and around 100% in series [4] (U251 cells, at 100 uM).

Take `OCCS` [b-ME, beta-mercaptoethanol]: the “effect of anti-oxidant on NEO212-induced marker changes” value in series [7] was “prevented the anticancer impact of NEO212”.

On to `Cn1nnc2c(C(N)=O)ncn2c1=O` [TMZ, temozolomide, reference compound], for which the “cytotoxicity in MTT assay” value in [8] is given as “did not induce significant cytotoxicity”; in series [13], “did not induce significant cytotoxicity”; in series [6] it was “minimal cytotoxicity”. In addition, the “cytotoxic effect on MF cells in MTT assay” value in series [9] is listed as “does not show much cytotoxicity”. Moreover, the IC50 in series [10] (Homo sapiens, HuT-102) is 6 to 8 µM; in [12] (HUT78, 72 hours), above 300 µM; in series [16] it was above 300 µM. The cell death in [11] was determined as 26%. The reduction of viability result in series [12] (HUT78, 100 μM) is on record as “about 30%”. In addition, the peak plasma levels in [14] was 50 to 70 µM. Besides, the figures for the “cytotoxicity in colony forming assay” value in series [15] and in series [17] were “minimal cytotoxicity” and “demonstrated cytotoxicity”, respectively.

Turning to `C=C(C)[C@@H]1CC=C(CO)CC1` [POH, perillyl alcohol, reference compound], the “cytotoxicity in MTT assay” value in series [8] and in series [13] was “demonstrated cytotoxicity” in each case. The 50% inhibitory concentration (IC50) in series [18] is 700 to 1800 µM. Also, the “activity on viability in MTT assay” value in series [10] (up to 300 μM) is “very minimal activity”. Also, the “cytotoxicity in colony forming assay” value in [15] and in series [17] was “demonstrated cytotoxicity” in each case.

What is called IC50 is the concentration at which inhibition is half-maximal.
